The molecules below were run on MT4 (assay: Growth inhibition of HIV-1 in human lymphocyte MT-4 cells).
Type: functional, cell-based
For `CN1C=CCC(C(=O)OCC2CCC(n3ccc(N)nc3=O)O2)=C1` (centres undefined), the IC50 was 1200 nM. `CN1C=CCC(C(=O)Nc2ccn(C3CCC(COC(=O)C4=CN(C)C=CC4)O3)c(=O)n2)=C1` (centres undefined) gave an IC50 of 1900 nM. `CN1C=CCC(C(=O)Nc2ccn(C3CCC(CO)O3)c(=O)n2)=C1` (centres undefined) was tested, and the IC50 was 1200 nM. Molecule `Nc1ccn([C@H]2CC[C@@H](CO)O2)c(=O)n1` (stereo in doubt; form 1) [ZALCITABINE] has an IC50 of 1000 nM.
